Assay results published in patent US8703431B2, “Polypeptides for the in vitro assessment of the sensitising potential of a test compound” (Immunosearch, priority 2009, dated 2014).

Experiments:
[1] = target: T1, polypeptide SEQ ID NO: 8 in which X1, X2, X3 and X4 each represents a lysine (Mus musculus, UniProt O09114); experiment: HPLC test of % fixing of test compound on polypeptide; type: binding; settings: 5 mM test compound; for fixing, SEQ ID NO: 8 (X1-X4 lysine), pH 8.3 / fixing, SEQ ID NO: 8 (X1-X4 lysine), pH 8.8 / fixing, SEQ ID NO: 8 (X1-X4 lysine), pH 9.2: Example 3; for fixing, SEQ ID NO: 8 (X1-X4 lysine), pH 8.3: twice 0.5 mM polypeptide (SEQ ID NO: 19 and 8), TRIS-HCl pH 8.3; for fixing, SEQ ID NO: 8 (X1-X4 lysine), pH 8.3 / fixing, SEQ ID NO: 8 (X1-X4 lysine), pH 9.2: 'Fixing' = fixing exists but not quantifiable; for fixing, SEQ ID NO: 8 (X1-X4 lysine), pH 8.8: TRIS-HCl pH 8.8; for fixing, SEQ ID NO: 8 (X1-X4 lysine), pH 9.2: TRIS-HCl pH 9.2; for % fixing (mean), SEQ ID NO: 8 (X1-X4 lysine): Example 4
T1 construct: made in house; host or cells: chemical peptide synthesis (Fmoc)
T1 sequence (O09114 148-173 limits assumed): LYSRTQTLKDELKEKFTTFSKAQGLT
Method: (§1) A test with 0.5 mM of polypeptide and 5 mM of test compound is carried out under the following conditions:
(§2) The reaction mixture containing 40 μl of peptide solution (1.25 mM stock solution in a 100 mM ammonium acetate buffer at pH 10.2 and the polypeptide of sequence SEQ ID NO: 18, SEQ ID NO: 7 in which X1, X2, X3 and X4 each represents a lysine, or SEQ ID NO: 8 in which X1, X2, X3 and X4 each represents a lysine), 35 μl of 100 mM ammonium acetate buffer solution, at pH 10.2, 20 μl of acetonitrile and 5 μl of solution to be tested (100 mM stock solution in acetonitrile or a 50% acetonitrile 50% DMSO mixture) was prepared and then stirred.
(§3) The reaction mixture was then put to incubate at 30° C. for 4 hours and in darkness.
(§4) HPLC analysis was then carried out at a gradient of 10% to 45% of buffer B (acetonitrile+0.08% of trifluoroacetic acid (TFA)) in 20 minutes (buffer A: water+0.1% of TFA), rate 1 ml/minute. Detection was carried out under UV at 230 nm.
(§5) The control without allergen consisted of 40 μl of buffer solution.
(§6) The buffer used was 100 Mm TRIS-HCl at pH 8.3, pH 9.2 and pH 8.8.
(§7) The buffer used was TRIS-HCl at 100 mM.
(§8) A test with twice 0.5 mM of polypeptides of sequences SEQ ID NO: 19 and SEQ ID NO: 1 wherein X1, X2, X3 and X4 each represent a lysine, and having an NH2 group at its C-Terminal end, and SEQ ID NO: 8 wherein X1, X2, X3 and X4 each represent a lysine, and 5 mM of test compound, was carried out in accordance with the same protocol as that described for example 1.

[2] = system: polypeptide of sequence SEQ ID NO: 19 (Ac-RFAACAA-NH2); experiment: HPLC test of % fixing of test compound on polypeptide (positive control peptide); type: binding; settings: 5 mM test compound; for fixing, SEQ ID NO: 19, pH 8.3 / fixing, SEQ ID NO: 19, pH 8.8 / fixing, SEQ ID NO: 19, pH 9.2: Example 3; for fixing, SEQ ID NO: 19, pH 8.3: twice 0.5 mM polypeptide (SEQ ID NO: 19 and 8), TRIS-HCl pH 8.3; for fixing, SEQ ID NO: 19, pH 8.3 / fixing, SEQ ID NO: 19, pH 8.8: 'Fixing' = fixing exists but not quantifiable; for fixing, SEQ ID NO: 19, pH 8.8: TRIS-HCl pH 8.8; for fixing, SEQ ID NO: 19, pH 9.2: TRIS-HCl pH 9.2; for % fixing (mean), SEQ ID NO: 19: Example 4
Method: as §1, §2, §3, §4, §5
A test with 0.5 mM of polypeptide of sequence […] and 5 mM of test compound was carried in accordance with the same protocol as that described for example 1.
The sequence SEQ ID NO: 19, which is not a lipocalin derivative, was used as a positive control. This sequence corresponds to the following sequence:
The buffer used was 100 mM TRIS-HCl at pH 8.3.
as §6, §7, §8

[3] = system: polypeptide SEQ ID NO: 1 wherein X1, X2, X3 and X4 each represent a lysine, having an NH2 group at its C-Terminal end; experiment: HPLC test of % fixing of test compound on polypeptide; type: binding; settings: for % fixing, SEQ ID NO: 1 (X1-X4 lysine, NH2 group at C-Terminal end): Example 5, 5 mM test compound, TRIS-HCl 100 mM, signal disturbed, preventing measurements greater than 82-83% fixing, these values represent a minimum; for precipitation of test compound during measurements with SEQ ID NO: 1: Example 5 conditions, explains the medium fixing results
Method: as §1, §2, §3, §4, §5, §8, §7
It should be noted, in the case of the tests of SEQ ID NO: 1, the signal was disturbed, preventing measurements greater than 82-83% fixing. These values consequently represent a minimum.
A coelution of the polypeptide with the allergens cinnamic aldehyde and 1,2-Benzisothiazolin-3-one was observed.

[4] = skin sensitisation, as stated in the description; cited from earlier work
[5] = system: polypeptide of sequence SEQ ID NO: 18 (Ac-RFAAKAA-NH2); experiment: HPLC test of % fixing of test compound on polypeptide (positive control peptide); type: binding; settings: 0.5 mM polypeptide, 5 mM test compound, 100 mM ammonium acetate buffer pH 10.2, 30° C., 4 hours, darkness
Method: as §1, §2
The sequence SEQ ID NO: 18, which is not a lipocalin derivative, was used as a positive control. This sequence corresponds to the following sequence:
as §3, §4, §5

[6] = target: T2, polypeptide SEQ ID NO: 7 in which X1, X2, X3 and X4 each represents a lysine (Mus musculus, UniProt P11672, DEL176-176); experiment: HPLC test of % fixing of test compound on polypeptide; type: binding; settings: 0.5 mM polypeptide, 5 mM test compound, 100 mM ammonium acetate buffer pH 10.2, 30° C., 4 hours, darkness
T2 construct: made in house; host or cells: chemical peptide synthesis (Fmoc)
T2 sequence (P11672 with tags, fused parts or gaps DEL176-176 limits assumed): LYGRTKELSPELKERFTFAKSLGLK
Method: as §1, §2, §3, §4, §5

[7] = twice 0.5 mM polypeptide, TRIS-HCl 100 mM, 'Fixing' = not quantifiable
[8] = Example 5, twice 0.5 mM polypeptide, TRIS-HCl 100 mM, 'Fixing' = not quantifiable
[9] = twice 0.5 mM polypeptide, TRIS-HCl 100 mM
[10] = Example 5, twice 0.5 mM polypeptide, TRIS-HCl 100 mM
[11] = Example 2, 0.5 mM polypeptide, 100 mM TRIS-HCl pH 8.3
[12] = 0.5 mM polypeptide, 100 mM ammonium acetate buffer pH 10.2, 30° C., 4 hours, darkness

SMILES	fixing, SEQ ID NO: 8 (X1-X4 lysine), pH 8.3 [1]	fixing, SEQ ID NO: 8 (X1-X4 lysine), pH 8.8 ([1]; twice 0.5 mM polypeptide)	fixing, SEQ ID NO: 8 (X1-X4 lysine), pH 9.2 ([1]; twice 0.5 mM polypeptide)	% fixing (mean), SEQ ID NO: 8 (X1-X4 lysine) [1, 7]	% fixing, SEQ ID NO: 8 (X1-X4 lysine) [1, 8]	fixing, SEQ ID NO: 19, pH 8.3 [2]	fixing, SEQ ID NO: 19, pH 8.8 ([2]; twice 0.5 mM polypeptide)	fixing, SEQ ID NO: 19, pH 9.2 ([2]; twice 0.5 mM polypeptide)	% fixing (mean), SEQ ID NO: 19 [2, 9]	% fixing, SEQ ID NO: 19 [2, 10]	% fixing, SEQ ID NO: 1 (X1-X4 lysine, NH2 group at C-Terminal end) [3]	sensitising capacity (sensitiser class) [4]	% fixing, SEQ ID NO: 19 [2, 11]	% fixing, SEQ ID NO: 18 [5]	% fixing, SEQ ID NO: 7 (X1-X4 lysine) [6]	% fixing, SEQ ID NO: 8 (X1-X4 lysine) [1, 12]	precipitation of test compound during measurements with SEQ ID NO: 1 [3]
O=CCCCC=O [GA, glutaraldehyde]	50%	100%	50%	50%	50%	22%	Fixing	33%	33%	33%	83%	strong sensitisers	–	–	–	–	–
CC(C)=CCCC(C)=CC=O [Cal, citral]	–	–	–	70%	70%	–	–	–	46%	46%	64%	moderate sensitisers	70%	–	–	–	–
Clc1ccccc1 [Cbz, chlorobenzene]	–	–	–	0%	0%	–	–	–	0%	0%	7.5%	non-sensitising	0%	0%	0%	0%	–
O=c1c(-c2ccccc2)c1-c1ccccc1 [DPCP, diphenylcyclopropenone]	–	–	–	–	–	–	–	–	100%	100%	83.5%	extremely strong sensitiser	96%	–	–	–	–
CCCCCCCCCCCCOC(=O)c1cc(O)c(O)c(O)c1 [LG, lauryl gallate]	–	–	–	62%	62%	–	–	–	100%	100%	41.5%	strong sensitisers	100%	62%	100%	63%	very greatly precipitated
CC(O)C(=O)O (stereo not shown) [LA, lactic acid]	0%	0%	0%	0%	0%	0%	0%	0%	0%	0%	1%	non-sensitising	–	–	–	–	–
CC(C=O)Cc1ccc(C(C)(C)C)cc1 (stereo not shown) [Li, lilial]	0%	–	–	0%	0%	36%	–	0%	18%	18%	12%	weak sensitiser	–	–	–	–	–
O=CCc1ccccc1 [PA, phenylacetaldehyde]	Fixing	0%	21%	Fixing	Fixing	100%	–	86%	81%	81%	54%	moderate sensitisers	–	–	–	–	very greatly precipitated
O=C/C=C/c1ccccc1 [CA, cinnamic aldehyde]	–	–	–	30%	30%	–	–	–	–	–	–	moderate sensitisers	–	17%	100%	30%	–
Oc1ccc(O)cc1 [HQ, 1,4-hydroquinone]	100%	100%	Fixing	100%	100%	100%	–	–	90%	90%	82.5%	strong sensitisers	–	–	–	–	–
O=c1[nH]sc2ccccc12 [Ben, 1,2-benzisothiazolin-3-one]	100%	100%	0%	–	–	Fixing	Fixing	–	90%	90%	–	moderate sensitisers	–	–	–	–	–
CN(C)CCCN [3-DMAPA, 3-3-dimethylaminopropylamine]	–	–	–	6%	6%	–	–	–	15%	15%	3%	moderate sensitisers	25%	–	–	–	–
